In PubChem BioAssay (NCI):
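Tested at 5 concentrations; 48 h exposure; 96-well plates; endpoints linearly interpolated, else capped at highest concentration. The concentration for full growth arrest is given as TGI.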

Columns and labels:
Experiment in all cases: NCI-60 cell line screen, 48 h
NCI-H460 lung = test system: NCI-H460 lung
OVCAR-8 ovarian = test system: OVCAR-8 ovarian
UO-31 renal = test system: UO-31 renal
PC-3 prostate = test system: PC-3 prostate
SNB-19 CNS = test system: SNB-19 CNS
OVCAR-3 ovarian = test system: OVCAR-3 ovarian
MALME-3M melanoma = test system: MALME-3M melanoma
RPMI-8226 leukemia = test system: RPMI-8226 leukemia
SK-MEL-28 melanoma = test system: SK-MEL-28 melanoma
SF-295 CNS = test system: SF-295 CNS
NCI/ADR-RES ovarian = test system: NCI/ADR-RES ovarian
A549 NSCLC = test system: A549 NSCLC
M14 melanoma = test system: M14 melanoma
OVCAR-5 ovarian = test system: OVCAR-5 ovarian
SK-MEL-2 melanoma = test system: SK-MEL-2 melanoma
OVCAR-4 ovarian = test system: OVCAR-4 ovarian
ACHN renal = test system: ACHN renal
TK-10 renal = test system: TK-10 renal
NCI-H522 lung = test system: NCI-H522 lung

Structure (SMILES) | TGI (NCI-H460 lung) [µM] | TGI (OVCAR-8 ovarian) [µM] | TGI (UO-31 renal) [µM] | TGI (PC-3 prostate) [µM] | TGI (SNB-19 CNS) [µM] | TGI (OVCAR-3 ovarian) [µM] | TGI (MALME-3M melanoma) [µM] | TGI (RPMI-8226 leukemia) [µM] | TGI (SK-MEL-28 melanoma) [µM] | TGI (SF-295 CNS) [µM] | TGI (NCI/ADR-RES ovarian) [µM] | TGI (A549 NSCLC) [µM] | TGI (M14 melanoma) [µM] | TGI (OVCAR-5 ovarian) [µM] | TGI (SK-MEL-2 melanoma) [µM] | TGI (OVCAR-4 ovarian) [µM] | TGI (ACHN renal) [µM] | TGI (TK-10 renal) [µM] | TGI (NCI-H522 lung) [µM]
CCOC(=O)c1cc(C2CCN(CC(C)CC)C2=S)c(-c2cc(C)no2)[nH]1 (stereo not given) | > 100 | > 100 | 82.4 | > 100 | > 100 | > 100 | > 100 | > 100 | > 100 | > 100 | > 100 | > 100 | > 100 | > 100 | > 100 | > 100 | – | – | –
CCN1CN(c2ccccc2)C2(CCN(CCCSc3ccc(F)cc3)CC2)C1=O | – | 30.5 | 18.1 | 28.1 | 24.3 | 27.2 | 36.1 | 46.8 | 31 | 25.7 | 28.2 | 21.2 | 21.6 | 20.5 | – | – | 24.1 | 26.3 | 30
Cc1cc(NC(=O)NC(=O)c2ccccc2N)ccc1Oc1ncc(Br)cn1 | 14.3 | > 46.1 | > 59.6 | 6.15 | 38.5 | < 0.0173 | > 69.9 | > 100 | > 100 | 17 | – | 20.7 | > 31.2 | > 100 | 0.481 | > 75.9 | > 100 | 35.1 | 0.0555
Cc1nc(-n2[nH]c(C)c(CCO)c2=O)[nH]c(=O)c1CCO | > 100 | > 100 | > 100 | > 100 | > 100 | > 100 | – | > 100 | > 100 | > 100 | > 100 | > 100 | > 100 | – | – | > 100 | > 100 | > 100 | > 100
CCN(CC)CCC1CCCCN1CC(=O)N1c2ccccc2NC(=O)c2ccccc21 (stereo not given) | > 100 | > 100 | > 100 | > 100 | > 100 | > 100 | > 100 | > 100 | > 100 | > 100 | – | > 100 | > 100 | > 100 | > 100 | > 100 | > 100 | > 100 | > 100
COc1ccc(C(=O)/C=C/c2ccc(OCCSCCCCCCCCCCSCCOc3ccc(/C=C/C(=O)c4ccc(OC)cc4)cc3)cc2)cc1 | > 100 | > 100 | > 100 | > 100 | > 100 | – | – | > 100 | > 100 | > 100 | > 100 | > 100 | > 100 | – | > 100 | > 100 | > 100 | > 100 | –
CC(C)(C)[Si](C)(C)OCC1OC(n2ccc(=O)[nH]c2=O)C(O[Si](C)(C)C(C)(C)C)[C@@]12O[C@H]2C(N)=O (stereo not given in full) | 20.4 | 32.5 | 19.6 | 17.8 | 24.1 | 25.9 | – | > 100 | > 100 | 17 | 38.5 | 25.9 | 42.9 | 40.6 | 34.6 | 89.5 | 16.5 | 48.3 | 7.35
C=CC(C)(C)C(=C)C(=O)N(C)c1ccccc1I | > 100 | > 100 | > 100 | > 100 | > 100 | > 100 | – | > 100 | > 100 | > 100 | > 100 | > 100 | > 100 | > 100 | > 100 | > 100 | > 100 | > 100 | > 100
C#CCOCn1ccc(=O)[nH]c1=O | > 100 | > 100 | > 100 | > 100 | > 100 | – | > 100 | > 100 | > 100 | > 100 | > 100 | > 100 | > 100 | > 100 | > 100 | > 100 | > 100 | > 100 | –
Cc1nc2ccc(F)cc2c2c1CCO2 | > 100 | > 100 | > 100 | – | > 100 | – | > 100 | > 100 | > 100 | > 100 | > 100 | > 100 | > 100 | > 100 | > 100 | > 100 | > 100 | > 100 | > 100
CC1(C)C2CCC(N)(C2)C1N (stereo not given) | > 100 | > 100 | > 100 | > 100 | > 100 | > 100 | – | > 100 | > 100 | > 100 | > 100 | > 100 | > 100 | > 100 | > 100 | > 100 | > 100 | > 100 | –
O=C(O)CCC(NC(=O)c1ccc(Nc2cnc3ccc(C(F)(F)F)cc3n2)cc1)C(=O)O (stereo not given) | > 100 | > 100 | > 100 | > 100 | > 100 | > 100 | > 100 | > 100 | > 100 | > 100 | > 100 | > 100 | > 100 | > 100 | > 100 | > 100 | > 100 | > 100 | –
NC1CC(N)c2c(Br)sc(Br)c21 (stereo not given) | > 100 | > 100 | > 100 | – | – | > 100 | > 100 | – | > 100 | > 100 | > 100 | > 100 | > 100 | > 100 | > 100 | > 100 | > 100 | > 100 | > 100
